# Patent publication US4208414A, “Vinblastine in rheumatoid arthritis” (Eli Lilly and Company, priority 1979, dated 1980)
# Counter-ions that a name gives are not always drawn.
# Tests used:
# [1] = adjuvant-induced arthritis assay in rats; type: in vivo, female Wistar-Lewis rats; conditions: for Percent Inhibition Swelling, Injected Paw / Percent Inhibition Swelling, Uninjected Paw: day 16; for Percent Inhibition of Swelling, Injected Paw / Percent Inhibition of Swelling, Uninjected Paw: Table 2; for inhibiting induced arthritis, drug alone: at the dose levels used in combination; for Inhibition of Swelling, Mean Difference, Injected Paw / Inhibition of Swelling, Mean Difference, Uninjected Paw: Table 3
# [2] = weight loss / deaths as a measure of toxicity in the adjuvant arthritis experiments
# Procedure: Similar experiments were carried out with vinblastine-fenoprofen combinations and a vinblastine-indomethacin combination, again using adjuvant arthritis as a model. In this first determination, vinblastine was, as before, given on the 10th day, but fenoprofen, as the calcium salt, was given both from day 0 through day 15 and from day 10 through day 15. Controls utilizing each drug alone were employed as well as a saline control. […] In the vinblastine-indomethacin experiment, vinblastine was given on day 11 and indomethacin daily from days 11 to day 16.
# [3] = twine granuloma assay; type: in vivo; conditions: female rats
# Text: Vinblastine is also active in other assays designed to detect anti-arthritic activity as, for example, the twine granuloma assay in female rats.
# [4] = pigeons or chickens, intertarsal joint; cited from earlier work
# [5] = mice; cited from earlier work
# [6] = dogs pretreated with vinblastine; cited from earlier work
# [7] = intravenous; pleural cavity; cited from earlier work
# [8] = antiarthritic activity relative to vinblastine, parenteral; type: in vivo; conditions: parenteral administration
# [9] = Table 1 Section B, fenoprofen 5 mg/kg, days 10-15
# [10] = Table 1 Section A, 3 mg/kg, given on 10th day
# [11] = Table 1 Section A, 6 mg/kg, given on 10th day
# [12] = Table 1 Section A, 9 mg/kg, given on 10th day
# [13] = Table 1 Section A, 9 mg/kg, given on 10th day, * decrease from previous value
# [14] = Table 1 Section A, 12 mg/kg, given on 10th day, * decrease from previous value
# [15] = Table 1 Section B, vinblastine sulfate 6 mg/kg, 10th day
# [16] = vinblastine sulfate 3 mg/kg, day 10, p = 1
# [17] = Table 2, vinblastine sulfate 3 mg/kg day 10
smiles,measurement,setting,value
"CC(C(=O)O)c1cccc(Oc2ccccc2)c1 (racemic) [Fenoprofen (Ca salt), dl-α-methyl-3-phenoxybenzeneacetic acid]","Average Increase in Swelling, Injected Paw, Day 0-10",[1]; [9],0.502
same,"Average Increase in Swelling, Injected Paw, Day 10-16",[1]; [9],0.692
same,"Average Increase in Swelling, Uninjected Paw, Day 0-10",[1]; [9],0.188
same,"Average Increase in Swelling, Uninjected Paw, Day 10-16",[1]; [9],0.274
same,"Percent Inhibition Swelling, Injected Paw","[1]; Table 1 Section B, fenoprofen 5 mg/kg, days 10-15, p = 0.074",41.11%
same,"Percent Inhibition Swelling, Uninjected Paw","[1]; Table 1 Section B, fenoprofen 5 mg/kg, days 10-15, p = 0.282",51.93%
same,"Percent Inhibition of Swelling, Injected Paw","[1]; fenoprofen Ca salt 2.5 mg/kg days 0-15, p = 0.196",34.9%
same,"Percent Inhibition of Swelling, Uninjected Paw","[1]; fenoprofen Ca salt 2.5 mg/kg days 0-15, p = 0.645",17.4%
same,"Percent Inhibition of Swelling, Uninjected Paw","[1]; fenoprofen Ca salt 5 mg/kg days 10-15, p = 0.385",27.2%
same,"Percent Inhibition of Swelling, Injected Paw","[1]; fenoprofen Ca salt 5 mg/kg days 10-15, p = 0.58",40.3%
same,"inhibiting induced arthritis, drug alone",[1],neither drug alone is effective
same,death,"[2]; Table 2 footnote, 2.5 mg/kg days 0-15, at day 16",one death
COc1ccc2c(c1)c(CC(=O)O)c(C)n2C(=O)c1ccc(Cl)cc1 [Indomethacin],"Inhibition of Swelling, Mean Difference, Injected Paw","[1]; indomethacin 0.25 mg/kg, p = 0.11",0.59
same,"Inhibition of Swelling, Mean Difference, Uninjected Paw","[1]; indomethacin 0.25 mg/kg, p = 1",0.56
same,"inhibiting induced arthritis, drug alone",[1],neither drug alone is effective
CC[C@]1(O)C[C@@H]2CN(CCc3c([nH]c4ccccc34)[C@@](C(=O)OC)(c3cc4c(cc3OC)N(C)[C@H]3[C@@](O)(C(=O)OC)[C@H](OC(C)=O)[C@]5(CC)C=CCN6CC[C@]43[C@@H]65)C2)C1 [Vinblastine sulfate],"Average Increase in Swelling, Injected Paw, Day 0-10",[1]; [10],0.554
same,"Average Increase in Swelling, Injected Paw, Day 10-16",[1]; [10],0.722
same,"Average Increase in Swelling, Uninjected Paw, Day 0-10",[1]; [10],0.024
same,"Average Increase in Swelling, Uninjected Paw, Day 10-16",[1]; [10],0.574
same,"Percent Inhibition Swelling, Injected Paw","[1]; Table 1 Section A, 3 mg/kg, given on 10th day, p = 0.097",38.55%
same,"Percent Inhibition Swelling, Uninjected Paw","[1]; Table 1 Section A, 3 mg/kg, given on 10th day, p = 0.987",0%
same,"Average Increase in Swelling, Injected Paw, Day 0-10",[1]; [11],0.498
same,"Average Increase in Swelling, Injected Paw, Day 10-16",[1]; [11],0.188
same,"Average Increase in Swelling, Uninjected Paw, Day 0-10",[1]; [11],0.038
same,"Percent Inhibition Swelling, Injected Paw","[1]; Table 1 Section A, 6 mg/kg, given on 10th day, p = 0.001",84.00%
same,"Percent Inhibition Swelling, Uninjected Paw","[1]; Table 1 Section A, 6 mg/kg, given on 10th day, p = 0.077",74.39%
same,"Average Increase in Swelling, Injected Paw, Day 0-10",[1]; [12],0.492
same,"Average Increase in Swelling, Uninjected Paw, Day 0-10",[1]; [12],0.230
same,"Average Increase in Swelling, Injected Paw, Day 10-16",[1]; [13],-0.096
same,"Average Increase in Swelling, Uninjected Paw, Day 10-16",[1]; [13],-0.232
same,"Percent Inhibition Swelling, Injected Paw","[1]; Table 1 Section A, 9 mg/kg, given on 10th day, p = 0.000",100.0%
same,"Percent Inhibition Swelling, Uninjected Paw","[1]; Table 1 Section A, 9 mg/kg, given on 10th day, p = 0.004",100.00%
same,"Average Increase in Swelling, Injected Paw, Day 0-10","[1]; Table 1 Section A, 12 mg/kg, given on 10th day",0.698
same,"Average Increase in Swelling, Injected Paw, Day 10-16",[1]; [14],-0.108
same,"Average Increase in Swelling, Uninjected Paw, Day 0-10",[1]; [14],-0.102
same,"Average Increase in Swelling, Uninjected Paw, Day 10-16",[1]; [14],-0.048
same,"Percent Inhibition Swelling, Injected Paw","[1]; Table 1 Section A, 12 mg/kg, given on 10th day, p = 0.000",100.00%
same,"Percent Inhibition Swelling, Uninjected Paw","[1]; Table 1 Section A, 12 mg/kg, given on 10th day, p = 0.027",100.00%
same,"Average Increase in Swelling, Injected Paw, Day 0-10",[1]; [15],0.498
same,"Average Increase in Swelling, Injected Paw, Day 10-16",[1]; [15],0.188
same,"Average Increase in Swelling, Uninjected Paw, Day 0-10",[1]; [15],0.030
same,"Percent Inhibition Swelling, Injected Paw","[1]; Table 1 Section B, vinblastine sulfate 6 mg/kg, 10th day, p = 0.001",84.00%
same,"Percent Inhibition Swelling, Uninjected Paw","[1]; Table 1 Section B, vinblastine sulfate 6 mg/kg, 10th day, p = 0.077",74.39%
same,"Percent Inhibition of Swelling, Injected Paw","[1]; vinblastine sulfate 3 mg/kg day 10, p = 0.724",8.22%
same,"Percent Inhibition of Swelling, Uninjected Paw","[1]; vinblastine sulfate 3 mg/kg day 10, p = 0.764",12.0%
same,"Inhibition of Swelling, Mean Difference, Injected Paw",[1]; [16],1.00
same,"Inhibition of Swelling, Mean Difference, Uninjected Paw",[1]; [16],0.41
same,"inhibiting induced arthritis, drug alone",[1],neither drug alone is effective
same,"Wt. Loss, Day 0-16",[2]; [17],-22.3 grams
same,"Wt. Loss, Day 10-16",[2]; [17],-22.6 grams
same,"Wt. Loss, Day 10-17","[2]; Table 3, vinblastine sulfate 3 mg/kg, day 10",28.9 grams
CC[C@]1(O)C[C@@H]2CN(CCc3c([nH]c4ccccc34)[C@@](C(=O)OC)(c3cc4c(cc3OC)N(C)[C@H]3[C@@](O)(C(=O)OC)[C@H](OC(C)=O)[C@]5(CC)C=CCN6CC[C@]43[C@@H]65)C2)C1 [Vinblastine],activity in the adjuvant arthritis assay,[1]; summary statement,active in the adjuvant arthritis assay
same,activity in twine granuloma assay,[3],active
same,inhibition of the arthritic response,[4],no inhibition of the arthritic response
same,depression of paw swelling,[5],significant depression of paw swelling
same,inflammatory response,[6],almost completely abolished
same,leukocyte depletion,[6],profound leukocyte depletion
same,significant phagocyte accumulation,[6],prevented
same,effect on inflammation,[7],may have a suppressive effect
CC[C@]1(O)C[C@H]2CN(CCc3c([nH]c4ccccc34)[C@@](C(=O)OC)(c3cc4c(cc3OC)N(C=O)[C@H]3[C@@](O)(C(=O)OC)[C@H](OC(C)=O)[C@]5(CC)C=CCN6CC[C@]43[C@@H]65)C2)C1 [vincristine],antiarthritic activity relative to VLB,[8],about 10 times more active
same,inhibition of the arthritic response,[4],no inhibition of the arthritic response
same,depression of paw swelling,[5],significant depression of paw swelling
